Read-outs that look alike come from different tables or passages of the source.
How the values were obtained:
beagle dogs [1] = test: Safety evaluation in single dosing; format: in vivo; settings: intragastric single dose of 2 g/kg; for Activities, mental condition and diet: administration and observation period
Procedure: Safety Evaluation of Compounds I-1 and I-2 in Single Dosing: The test consisted of a physiological control group, a solvent control group, and two administration groups, with 4 animals in each group, half of which were male and the other half of which were female. The animals were intragastrically administered with the test compounds at a single dose of 2 g/kg. The solvent control group was administered with an equal volume of the blank solvent. Animals were daily observed for various conditions during the test. ECG examinations were performed before administration, 1 h after administration, and 7 and 14 days after administration. Hematological and blood biochemical tests were performed before administration and 1, 7 and 12 days after administration.

[2] = tested on: arteriovenous bypass thrombosis in rats; test: Test of effect of compounds on arteriovenous bypass thrombosis in rats; format: in vivo, SD rats; set-up: Dry weight of thrombus (%): unit not given here; settings: for ED50: Rattus norvegicus, po; for Inhibition rate (%): dry weight of thrombus; for Dry weight of thrombus (%): loop opened 2.5 h after administration, 15 min
Procedure: Test of Effect of Compounds on Arteriovenous Bypass Thrombosis in Rats
Male SD rats were randomly divided into solvent control group, positive drug control group and test compound group. The solvent control group was administered a corresponding volume of the solvent. […] Rats were anesthetized with 4% chloral hydrate (0.32 g/kg), and fixed on the operating table at the supine position. The right common carotid artery and the left external jugular vein were separated, and was each inserted with a Teflon tube filled with normal saline solution containing heparin (50 U/mL), which were connected through another Teflon tube. A 6 cm long cotton thread was placed at the joints of the two tubes. After 2.5 h of administration, the arteriovenous loop was opened in each group and circulated for 15 min. The blood flow was interrupted, and the cotton thread wrapped with the thrombus was quickly removed and weighed. The weight of the cotton thread was subtracted to obtain the wet weight of the thrombus, and then it was baked in the oven to constant weight and weighed. The weight of the cotton thread was subtracted to obtain the dry weight of the thrombus.

[3] = Stability of the compounds under high temperature, high humidity and light (influence factors, HPLC); format: physicochemical
Procedure: Study on the Stability of the Compounds:
The stability of the compound is investigated under the conditions of high temperature, high humidity and light. The testing conditions for high performance liquid chromatography (HPLC) are as follows:
Instrument: high performance liquid chromatography;
Column: Inertsil C8-3, 150 mm×4.6 mm, 5 μm;
Mobile phase A: acetonitrile; mobile phase B: 5 mM ammonium dihydrogen phosphate;
Detection wavelength: 220 nm;
Column temperature: 35° C.;
Sample chamber temperature: 25° C.;
Column: Agilent Poroshell 120 EC-C18, 100 mm×4.6 mm, 2.7 μm;
Column temperature: 30° C.;
Other conditions are the same as that in Method 1.
(§1) Samples relating to Compound I-2 were tested using Method 2 and other samples were tested using Method 1. The test results of the influence factors are shown in Table 14, and the test results of the light-avoidance stability test are shown in Table 15.

[4] = Light-avoidance stability test after being packaged with aluminum foil (HPLC); format: physicochemical
Procedure: as §1, with “The stability of the compound is investigated under the conditions of high temperature, high humidity and light. The testing conditions for high performance liquid chromatography (HPLC) are as follows: Samples” for “Samples”

beagle dogs [5] = test: Safety evaluation in multiple dosing (14 days); format: in vivo; settings: for Drug-related toxicity (appearance, mental activity, appetite, hematological, blood biochemical, ECG): continuous intragastrical administration for 14 days; for ECG examinations, hematological tests and serum biochemical tests: day 7 and 14
Procedure: Safety Evaluation of Compounds I-1 and I-2 in Multiple Dosing:
The test consisted of a physiological control group, a solvent control group, and two administration groups, with 4 animals in each group, half of which were male and the other half of which were female. Two dose groups, 100 mg/kg group and 300 mg/kg group, were set for the test compounds, to which the test compounds at doses of 100 mg/kg and 300 mg/kg were intragastrically administered respectively over 14 days. The solvent control group was administered with an equal volume of the blank solvent. Animals were daily observed for various conditions during the test. ECG examinations were performed before administration, and 7 and 14 days after administration. Hematological and blood biochemical tests were performed before administration and 7 and […] after administration.

[6] = 5 days, High temperature 60° C.
[7] = 10 days, High temperature 60° C.
[8] = 30 days, High temperature 60° C.
[9] = 5 days, Light (aluminum foil) 4500 ± 500 LX
[10] = 10 days, Light (aluminum foil) 4500 ± 500 LX
[11] = 30 days, Light (aluminum foil) 4500 ± 500 LX
[12] = intragastric 100 mg/kg over 14 days
[13] = intragastric 300 mg/kg over 14 days

## C/C=C/C(=O)Oc1cc2c(s1)CCN([C@H](C(=O)OC)c1ccccc1Cl)C2 [Compound I-1, Methyl (S,E)-2-(2-chlorophenyl)-2-(2-(2-butenoyloxy)-6,7-dihydrothieno[3,2-c]pyridin-5(4H)-yl)-acetate]
Beagle dogs [1]
  ECG examinations, hematological tests and serum biochemical tests: no obvious abnormalities
  Activities, mental condition and diet: normal activities, good mental condition, and normal diet
[2]
  ED50: 7.89 mg/kg
[2]; rats, intragastric 1 mg/kg
  Inhibition rate (%): 18.3%
  Dry weight of thrombus (%): 8.3 ± 2.7
[2]; rats, intragastric 3 mg/kg
  Inhibition rate (%): 43.2%
  Dry weight of thrombus (%): 5.8 ± 1.4
[2]; rats, intragastric 10 mg/kg
  Inhibition rate (%): 56.0%
  Dry weight of thrombus (%): 4.5 ± 2.4
[2]; rats, intragastric 30 mg/kg
  Inhibition rate (%): 64.2%
  Dry weight of thrombus (%): 3.6 ± 0.5
[3]; 0 day, 0point
  Chromatographic purity %: 99.612%
  Individual maximum impurity %: 0.236%
[3]; 5 days, High humidity RH92.5%
  Chromatographic purity %: 99.583%
  Individual maximum impurity %: 0.235%
[3]; [6]
  Chromatographic purity %: 99.595%
  Individual maximum impurity %: 0.234%
[3]; 5 days, Light 4500 ± 500 LX
  Chromatographic purity %: 99.539%
  Individual maximum impurity %: 0.287%
[3]; 10 days, High humidity RH92.5%
  Chromatographic purity %: 99.578%
  Individual maximum impurity %: 0.234%
[3]; [7]
  Chromatographic purity %: 99.596%
  Individual maximum impurity %: 0.232%
[3]; 10 days, Light 4500 ± 500 LX
  Chromatographic purity %: 99.502%
  Individual maximum impurity %: 0.313%
[3]; 30 days, High humidity RH92.5%
  Chromatographic purity %: 99.544%
  Individual maximum impurity %: 0.235%
[3]; [8]
  Chromatographic purity %: 99.570%
  Individual maximum impurity %: 0.237%
[3]; 30 days, Light 4500 ± 500 LX
  Chromatographic purity %: 98.868%
  Individual maximum impurity %: 0.698%
[4]; 0 day, 0point
  Chromatographic purity %: 99.612%
  Individual maximum impurity %: 0.236%
[4]; [9]
  Chromatographic purity %: 99.598%
  Individual maximum impurity %: 0.242%
[4]; [10]
  Chromatographic purity %: 99.565%
  Individual maximum impurity %: 0.243%
[4]; [11]
  Chromatographic purity %: 99.555%
  Individual maximum impurity %: 0.242%
Beagle dogs [5]
  Drug-related toxicity (appearance, mental activity, appetite, hematological, blood biochemical, ECG): no significant drug-related toxicity
Beagle dogs [5]; [12]
  Activities, mental condition and diet: normal activities, good mental condition, and normal diet
  ECG examinations, hematological tests and serum biochemical tests: no obvious abnormalities
Beagle dogs [5]; [13]
  Activities, mental condition and diet: normal activities, good mental condition, and normal diet
  ECG examinations, hematological tests and serum biochemical tests: no obvious abnormalities

## C/C=C/C=C/C(=O)Oc1cc2c(s1)CCN([C@H](C(=O)OC)c1ccccc1Cl)C2 [Compound I-2, Methyl (S)-2-(2-chlorophenyl)-2-(2-((2E,4E)-2,4-hexadienoyloxy)-6,7-dihydrothieno[3,2-c]pyridin-5(4H)-yl)-acetate]
Beagle dogs [1]
  ECG examinations, hematological tests and serum biochemical tests: no obvious abnormalities
  Activities, mental condition and diet: normal activities, good mental condition, and normal diet
[2]; dry weight of thrombus from arteriovenous bypass, rats, intragastric, read-out: ED50
  ED50: 5.86 mg/kg
[2]; rats, intragastric 1 mg/kg
  Inhibition rate (%): 36.5%
  Dry weight of thrombus (%): 6.4 ± 3.6
[2]; rats, intragastric 3 mg/kg
  Inhibition rate (%): 40.3%
  Dry weight of thrombus (%): 6.1 ± 2.9
[2]; rats, intragastric 10 mg/kg
  Inhibition rate (%): 52.1%
  Dry weight of thrombus (%): 4.9 ± 2.3
[2]; rats, intragastric 30 mg/kg
  Inhibition rate (%): 68.6%
  Dry weight of thrombus (%): 3.2 ± 1.5
[3]; 0 day, 0point
  Chromatographic purity %: 98.879%
  Isomer %: 0.705%
[3]; 5 days, High humidity RH92.5%
  Chromatographic purity %: 98.897%
  Isomer %: 0.707%
[3]; [6]
  Chromatographic purity %: 98.840%
  Isomer %: 0.696%
[3]; 5 days, Light 4500 ± 500 LX
  Chromatographic purity %: 98.853%
  Isomer %: 0.699%
[3]; 10 days, High humidity RH92.5%
  Chromatographic purity %: 98.882%
  Isomer %: 0.708%
[3]; [7]
  Chromatographic purity %: 98.930%
  Isomer %: 0.692%
[3]; 10 days, Light 4500 ± 500 LX
  Chromatographic purity %: 98.756%
  Isomer %: 0.712%
[3]; 30 days, High humidity RH92.5%
  Chromatographic purity %: 98.885%
  Isomer %: 0.704%
[3]; [8]
  Chromatographic purity %: 98.936%
  Isomer %: 0.683%
[3]; 30 days, Light 4500 ± 500 LX
  Chromatographic purity %: 95.099%
  Isomer %: 0.695%
[4]; 0 day, 0point
  Chromatographic purity %: 98.879%
  Individual maximum impurity %: 0.705%
[4]; [9]
  Chromatographic purity %: 98.348%
  Individual maximum impurity %: 0.699%
[4]; [10]
  Chromatographic purity %: 98.544%
  Individual maximum impurity %: 0.699%
[4]; [11]
  Chromatographic purity %: 98.434%
  Individual maximum impurity %: 0.696%
Beagle dogs [5]
  Drug-related toxicity (appearance, mental activity, appetite, hematological, blood biochemical, ECG): no significant drug-related toxicity
Beagle dogs [5]; [12]
  Activities, mental condition and diet: normal activities, good mental condition, and normal diet
  ECG examinations, hematological tests and serum biochemical tests: no obvious abnormalities
Beagle dogs [5]; [13]
  Activities, mental condition and diet: normal activities, good mental condition, and normal diet
  ECG examinations, hematological tests and serum biochemical tests: no obvious abnormalities
